pEC50: −log10 of the molar value.
Each compound was assayed against Kappa-type opioid receptor (Homo sapiens, UniProt P41145) (assay: Agonist activity at human kappa opioid receptor expressed in CHO cells assessed as beta-arrestin2 recruitment by enzyme fragment complementation method).
Type: cell-based

Sequence of Kappa-type opioid receptor (P41145 whole entry, the tested form may be a part): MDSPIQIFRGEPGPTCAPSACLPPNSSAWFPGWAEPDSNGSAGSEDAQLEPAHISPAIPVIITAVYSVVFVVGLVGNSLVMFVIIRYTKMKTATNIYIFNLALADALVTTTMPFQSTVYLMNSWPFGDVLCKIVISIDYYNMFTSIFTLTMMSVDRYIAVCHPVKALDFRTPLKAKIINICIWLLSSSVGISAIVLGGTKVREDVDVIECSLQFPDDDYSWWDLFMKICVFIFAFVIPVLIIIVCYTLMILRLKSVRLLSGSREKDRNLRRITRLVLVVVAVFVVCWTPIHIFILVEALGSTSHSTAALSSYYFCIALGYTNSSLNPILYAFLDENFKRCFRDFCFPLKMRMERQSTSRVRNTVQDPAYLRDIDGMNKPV

How did the pEC50 turn out when Cc1cc(CSc2nnc(-c3ccccn3)n2Cc2ccco2)ccc1C(F)(F)F was run?
Its pEC50 is 5.38.

How did the pEC50 turn out when CN(CCc1ccc(Cl)c(Cl)c1)[C@@H]1CCCC[C@H]1N1CCCC1 was run?
Its pEC50 is 7.25.

How did the pEC50 turn out when O=C(Nc1ccc(Cl)c(C(F)(F)F)c1)[C@H]1CC=C[C@H]2CCN(Cc3ccccc3)C(=O)[C@@H]12 was run?
Its pEC50 is < 5.00.

Source: ChEMBL document CHEMBL4033764, “Seeking (and Finding) Biased Ligands of the Kappa Opioid Receptor” (ACS Med Chem Lett, 2017)
